Laboratory results: ChEMBL document CHEMBL5576081, “Exploring the structural activity relationship of the Osimertinib: A covalent inhibitor of double mutant EGFRL858R/T790M tyrosine kinase for the treatment of Non-Small Cell Lung Cancer (NSCLC)” (Bioorg Med Chem, 2024)

Assays:
NCI-H1975 [1] = test: Antiproliferative activity against human NCI-H1975 cells; assay type: functional, cell-based
[2] = Antiproliferative activity against mouse KC-0116 cells; assay type: toxicity, cell-based
[3] = Antiproliferative activity against mouse Ba/F3 EGFR-T790M/L858R cells incubated for 3 days by Cell Titer-Glo assay; assay type: functional, cell-based; conditions: 72 h
NCI-H1975 [4] = test: Antiproliferative activity against human NCI-H1975 cells harboring EGFR L858R/T790M double mutant assessed as reduction in cell growth incubated for 72 hrs by CellTiter-Glo luminescent assay; assay type: functional, cell-based; conditions: NCI-H1975, 72 h
PC-9 [5] = test: Antiproliferative activity against human PC-9 cells harboring EGFR Del19 mutant assessed as inhibition of cell growth incubated for 72 hrs by CCK8 assay; assay type: functional, cell-based; conditions: PC-9, 72 h
LoVo [6] = test: Antiproliferative activity against human LoVo cells harboring wild-type EGFR assessed as reduction in cell growth incubated for 72 hrs by CCK8 assay; assay type: functional, cell-based
NCI-H1975 [7] = test: Cytotoxicity against human NCI-H1975 cells assessed as reduction in cell viability incubated for 48 hrs by CCK-8 assay; assay type: functional, cell-based; conditions: NCI-H1975, 48 h
PC-9 [8] = test: Cytotoxicity against human PC-9 cells assessed as reduction in cell viability incubated for 48 hrs by CCK-8 assay; assay type: functional, cell-based; conditions: PC-9, 48 h
NCI-H292 = test: Cytotoxicity against human NCI-H292 cells assessed as reduction in cell viability incubated for 48 hrs by CCK-8 assay; assay type: functional, cell-based; conditions: NCI-H292, 48 h
[9] = biological target: Epidermal growth factor receptor (Homo sapiens, UniProt P00533, L858R/T790M); test: Inhibition of EGFR L858R/T790M (unknown origin)
Chain of Epidermal growth factor receptor (P00533 25-1210 T790M/L858R limits assumed): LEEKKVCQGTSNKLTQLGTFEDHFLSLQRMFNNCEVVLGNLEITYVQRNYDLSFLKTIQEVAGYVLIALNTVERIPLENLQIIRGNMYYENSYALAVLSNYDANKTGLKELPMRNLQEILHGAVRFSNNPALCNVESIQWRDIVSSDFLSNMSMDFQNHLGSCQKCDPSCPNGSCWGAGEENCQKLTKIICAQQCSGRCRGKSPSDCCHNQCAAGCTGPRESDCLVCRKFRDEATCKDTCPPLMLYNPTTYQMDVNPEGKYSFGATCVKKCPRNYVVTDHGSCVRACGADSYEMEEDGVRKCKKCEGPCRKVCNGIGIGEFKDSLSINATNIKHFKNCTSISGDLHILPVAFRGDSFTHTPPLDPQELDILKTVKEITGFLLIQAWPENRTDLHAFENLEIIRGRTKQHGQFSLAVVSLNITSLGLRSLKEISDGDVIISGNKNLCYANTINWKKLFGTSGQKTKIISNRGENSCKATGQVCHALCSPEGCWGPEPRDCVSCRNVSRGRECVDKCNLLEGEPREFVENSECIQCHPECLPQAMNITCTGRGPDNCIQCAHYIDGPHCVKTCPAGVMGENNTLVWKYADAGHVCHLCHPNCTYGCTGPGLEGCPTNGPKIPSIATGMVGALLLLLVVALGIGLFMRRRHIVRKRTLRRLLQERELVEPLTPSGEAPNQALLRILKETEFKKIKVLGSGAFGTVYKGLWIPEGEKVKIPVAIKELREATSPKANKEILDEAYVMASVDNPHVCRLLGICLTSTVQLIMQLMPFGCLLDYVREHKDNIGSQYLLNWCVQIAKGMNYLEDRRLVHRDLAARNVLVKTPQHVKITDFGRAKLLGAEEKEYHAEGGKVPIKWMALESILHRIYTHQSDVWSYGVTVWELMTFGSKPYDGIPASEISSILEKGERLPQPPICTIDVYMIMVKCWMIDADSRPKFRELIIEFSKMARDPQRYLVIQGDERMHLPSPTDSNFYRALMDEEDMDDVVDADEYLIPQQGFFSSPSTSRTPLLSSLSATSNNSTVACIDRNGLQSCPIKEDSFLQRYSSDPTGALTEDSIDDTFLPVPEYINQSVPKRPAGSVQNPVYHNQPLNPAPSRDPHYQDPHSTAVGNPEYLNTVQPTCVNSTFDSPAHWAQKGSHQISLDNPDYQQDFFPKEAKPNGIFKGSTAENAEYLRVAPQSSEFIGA

LoVo [10] = test: Antiproliferative activity against human LoVo cells harboring wild-type EGFR assessed as reduction in cell viability; assay type: functional, cell-based
PC-9 [11] = test: Antiproliferative activity against human PC-9 cells harboring EGFR del19 mutant assessed as cell growth inhibition incubated for 72 hrs by CellTiter Glo assay; assay type: functional, cell-based; conditions: PC-9, 72 h
A-431 = test: Antiproliferative activity against human A-431 cells assessed as reduction in cell viability incubated for 48 hrs by MTT assay; assay type: functional, cell-based; conditions: A-431, 48 h
NCI-H1975 [12] = test: Antiproliferative activity against human NCI-H1975 cells assessed as reduction in cell viability incubated for 72 hrs by Cell-titer glo assay; assay type: functional, cell-based; conditions: NCI-H1975, 72 h

C=CC(=O)Nc1cc(Nc2nccc(-c3cn(C)c4ccccc34)n2)c(OC)cc1N(C)CCN(C)Cc1ccccc1
IC50 (NCI-H1975 [1]): 4 nM

COc1cc(N2CCC(N(C)C)CC2)c(NC(=O)CO)cc1Nc1nccc(-c2cn(C)c3ccccc23)n1
IC50 [2]: 460 nM | IC50 [3]: 480 nM

C=CC(=O)Nc1cc(Nc2ncc(Cl)c(-c3cnn4ccccc34)n2)c(OC)cc1N1CCN(C(=O)[C@H](C)N)CC1
IC50 (NCI-H1975 [4]): 19 nM | IC50 (PC-9 [5]): 28 nM | IC50 (LoVo [6]): 1.6 µM

CN(C)C1CCN(c2ccc(Nc3nccc(-c4cn(C)c5ccccc45)n3)cc2NS(C)(=O)=O)CC1
IC50 [2]: 160 nM | IC50 [3]: 170 nM

Cn1cc(-c2ccnc(Nc3ccc(N4CCCCC4)cc3)n2)c2ccccc21
IC50 [2]: 10000 nM | IC50 [3]: > 10000 nM

C=CC(=O)Nc1cc(Nc2nccc(-c3csc4ccccc34)n2)c(OC)cc1N1CCN(C)CC1
IC50 (NCI-H1975 [7]): 500 nM | IC50 (PC-9 [8]): 1900 nM | IC50 (NCI-H292): > 10 µM

C=CC(=O)Nc1cc(Nc2ncc(Cl)c(-c3cnn4ccccc34)n2)c(OC)cc1N1CC(N(C)C)C1
IC50 (PC-9 [5]): 21 nM | IC50 (LoVo [6]): 0.938 µM

C=CC(=O)Nc1cc(Nc2ncc(Cl)c(-c3cnn4ccccc34)n2)c(OC)cc1N1CCN(C(=O)[C@@H](C)N)CC1
IC50 (NCI-H1975 [4]): 177 nM | IC50 (PC-9 [5]): 351 nM | IC50 (LoVo [6]): 9 µM

COc1cc(N(C)CCN(C)C)c(NC(=O)c2ccnc(Cl)c2)cc1Nc1nccc(-c2cn(C)c3ccccc23)n1
IC50 [9]: 420 nM

C=CC(=O)Nc1cc(Nc2ncc(Cl)c(-c3cnn4ccccc34)n2)c(OC)cc1N1CCN(C(=O)CNC)CC1
IC50 (NCI-H1975 [4]): 66 nM | IC50 (PC-9 [5]): 156 nM | IC50 (LoVo [6]): 7.5 µM

CN(C)C1CCN(c2ccc(Nc3nccc(-c4cn(C)c5ccccc45)n3)cc2NS(=O)(=O)C2CC2)CC1
IC50 [2]: 240 nM | IC50 [3]: 250 nM

C=CC(=O)Nc1cc(Nc2ncc(C)c(-c3cn(C)c4ccccc34)n2)c(OC)cc1N(C)CCN(C)C
IC50 (NCI-H1975 [4]): 1 nM | IC50 (LoVo [10]): 71 nM

C=CC(=O)Nc1cc(Nc2nccc(-c3cn(C)c4ccccc34)n2)c(OC)cc1N(C)CCN(C)C(=O)c1ccc(Br)cc1
IC50 (NCI-H1975 [1]): 30 nM | IC50 [9]: 12.5 nM

C=CC(=O)Nc1cc(Nc2nccc(-c3csc4ccccc34)n2)c(OC)cc1N1CCN(C(C)C)CC1
IC50 (NCI-H1975 [7]): 130 nM | IC50 (PC-9 [8]): 1300 nM | IC50 (NCI-H292): > 10 µM

CN(C)C1CCN(c2ccc(Nc3nccc(-c4cn(C)c5ccccc45)n3)cc2)CC1
IC50 [2]: 400 nM | IC50 [3]: 450 nM

Cn1cc(-c2ccnc(Nc3cccc(NC(=O)CCN)c3)n2)c2ccccc21
IC50 [2]: 4990 nM | IC50 [3]: 4770 nM

CN1CCN(C2CCN(c3ccc(Nc4nccc(-c5cn(C)c6ccccc56)n4)cc3NS(=O)(=O)C3CC3)CC2)CC1
IC50 [2]: 170 nM | IC50 [3]: 200 nM

C=CC(=O)Nc1cc(Nc2ncc(Cl)c(-c3cnn4ccccc34)n2)c(OC)cc1N1CCN(C(=O)[C@H](C)O)CC1
IC50 (NCI-H1975 [4]): 75 nM | IC50 (PC-9 [5]): 179 nM | IC50 (LoVo [6]): 10.3 µM

COc1cc(N(C)CCN(C)C)c(NC(=O)CNC(=O)OC(C)(C)C)cc1Nc1nccc(-c2cn(C)c3ccccc23)n1
IC50 [2]: 1290 nM | IC50 [3]: 1280 nM

C=CC(=O)Nc1cc(Nc2ncc(Cl)c(-c3cnn4ccccc34)n2)c(OC)cc1N1CC[C@@H](N(C)C)C1
IC50 (NCI-H1975 [4]): 2 nM | IC50 (PC-9 [5]): 16 nM | IC50 (LoVo [6]): 3.36 µM

C=CC(=O)Nc1cc(Nc2ncc(C#N)c(-c3cn(C)c4ccccc34)n2)c(OC)cc1N(C)CCN(C)C
IC50 (NCI-H1975 [4]): 0.9 nM | IC50 (PC-9 [11]): 2 nM | IC50 (LoVo [10]): 46 nM

C=CC(=O)Nc1cc(Nc2nccc(-c3csc4ccccc34)n2)c(OC)cc1N(C)CCCN(C)C
IC50 (NCI-H1975 [7]): 170 nM | IC50 (PC-9 [8]): 300 nM | IC50 (NCI-H292): 4 µM

C=CC(=O)Nc1cc(Nc2nccc(Nc3ccn(C)n3)n2)c(OC)cc1N(C)CCN(C)CC(=O)OC
IC50 [9]: 42.3 nM

C=CC(=O)Nc1cc(Nc2nccc(-c3cn(C)c4ccccc34)n2)c(OC)cc1N(C)CCN(C)CC(=O)OC
IC50 (NCI-H1975 [1]): 8 nM | IC50 [9]: 5.7 nM

C=CC(=O)Nc1cc(Nc2nccc(Nc3ccn(C)n3)n2)c(OC)cc1N(C)CCN(C)C
IC50 [9]: 6.1 nM

COc1cc(N(C)CCN(C)C)c(NC(=O)c2ccncc2OC)cc1Nc1nccc(-c2cn(C)c3ccccc23)n1
IC50 [9]: > 500 nM

C=CC(=O)Nc1cc(Nc2nccc(-c3cn(C)c4ccccc34)n2)c(OC)cc1N(C)CCN(C)C [OSIMERTINIB]
IC50 (PC-9 [11]): […] | IC50 (A-431): […] | IC50 (NCI-H1975 [7]): […] | IC50 (NCI-H292): 2 µM

C=CC(=O)Nc1cc(Nc2ncc(Cl)c(-c3cn(C)c4ccccc34)n2)c(OC)cc1N(C)CCN(C)C
IC50 (NCI-H1975 [4]): 2 nM | IC50 (PC-9 [11]): 2 nM | IC50 (LoVo [10]): 58 nM

C=CC(=O)Nc1cc(Nc2ncc(Cl)c(-c3cnn4ccccc34)n2)c(OC)cc1N(C)CCN(C)C
IC50 (NCI-H1975 [4]): 0.6 nM | IC50 (PC-9 [5]): 2 nM | IC50 (LoVo [6]): 0.145 µM

Cn1cc(-c2ccnc(Nc3ccc(N4CCOCC4)cc3)n2)c2ccccc21
IC50 [2]: 7000 nM | IC50 [3]: > 10000 nM

C=CC(=O)Nc1cc(Nc2nccc(-c3csc4ccccc34)n2)c(OC)cc1N1CCN(CC)CC1
IC50 (NCI-H1975 [7]): 90 nM | IC50 (PC-9 [8]): 800 nM | IC50 (NCI-H292): > 10 µM

C=CC(=O)Nc1cc(Nc2nccc(-c3c[nH]c4ccccc34)n2)c(OC)cc1N(C)CCN(C)C
IC50 (NCI-H1975 [4]): 2 nM | IC50 (PC-9 [11]): 2 nM | IC50 (LoVo [10]): 33 nM

Cn1cc(-c2ccnc(Nc3ccc(N4CCC(N5CCOCC5)CC4)cc3)n2)c2ccccc21
IC50 [2]: 1710 nM | IC50 [3]: 5740 nM

C=CC(=O)Nc1cc(Nc2ncc(Cl)c(-c3cnn4ccccc34)n2)c(OC)cc1N1CCN(C(=O)CN(C)C)CC1
IC50 (NCI-H1975 [4]): 16 nM | IC50 (PC-9 [5]): 73 nM | IC50 (LoVo [6]): 10 µM

C=CCCN(C)CCN(C)c1cc(OC)c(Nc2nccc(-c3cn(C)c4ccccc34)n2)cc1NC(=O)C=C
IC50 (NCI-H1975 [1]): 2 nM | IC50 [9]: 2 nM

COCC(=O)Nc1cc(Nc2nccc(-c3cn(C)c4ccccc34)n2)c(OC)cc1N1CCC(N(C)C)CC1
IC50 [2]: 460 nM | IC50 [3]: 450 nM

COc1cc(N(C)CCN(C)C)c(NC(=O)c2ccnc(Cl)c2)cc1Nc1nccc(-c2cn(CCCO)c3ccccc23)n1
IC50 [9]: 137 nM

C=CC(=O)Nc1cc(Nc2ncc(Cl)c(-c3cn(C4CC4)c4ccccc34)n2)c(OC)cc1N(C)CCN(C)C
IC50 (NCI-H1975 [12]): 8.15 nM | IC50 (A-431): 0.059 µM

C=CC(=O)Nc1cc(Nc2nccc(-c3cn(C)c4ccccc34)n2)c(OC)cc1N(C)CCN(C)Cc1ccc(Br)cc1
IC50 (NCI-H1975 [1]): 20 nM | IC50 [9]: 8.1 nM

COc1cc(N(C)CCN(C)C)c(NC(=O)c2ncccn2)cc1Nc1nccc(-c2cn(C)c3ccccc23)n1
IC50 [9]: > 500 nM

C=CC(=O)Nc1cc(Nc2ncc(Cl)c(-c3c[nH]c4ccccc34)n2)c(OC)cc1N(C)CCN(C)C
IC50 (NCI-H1975 [4]): 0.2 nM | IC50 (PC-9 [11]): 0.6 nM | IC50 (LoVo [10]): 11 nM

COc1cc(N(C)CCN(C)C)c(NC(=O)c2ccncn2)cc1Nc1nccc(-c2cn(C)c3ccccc23)n1
IC50 [9]: 242 nM

C=CC(=O)Nc1cc(Nc2nccc(Nc3cnn(CC)c3)n2)c(OC)cc1N(C)CCN(C)C
IC50 [9]: 8 nM

COc1cc(N2CCC(N3CCN(C)CC3)CC2)ccc1Nc1ncc(Cl)c(Nc2ccccc2P(C)(C)=O)n1 [BRIGATINIB]
IC50 [2]: 350 nM | IC50 [3]: 450 nM

COc1cc(N(C)CCN(C)C)c(NC(=O)CN)cc1Nc1nccc(-c2cn(C)c3ccccc23)n1
IC50 [2]: 1320 nM | IC50 [3]: 2720 nM

C=CC(=O)Nc1cc(Nc2ncc(F)c(-c3csc4ccccc34)n2)c(OC)cc1N(C)CCNC(C)C
IC50 (NCI-H1975 [7]): 13 nM | IC50 (PC-9 [8]): 30 nM | IC50 (NCI-H292): 3.96 µM

C#CCN(C)CCN(C)c1cc(OC)c(Nc2nccc(Nc3ccn(C)n3)n2)cc1NC(=O)C=C
IC50 [9]: 8.58 nM

COc1cc(N(C)CCN(C)C)c(NC(=O)c2cnccn2)cc1Nc1nccc(-c2cn(C)c3ccccc23)n1
IC50 [9]: > 500 nM

COc1cc(N(C)CCN(C)C)c(NC(=O)c2ccncn2)cc1Nc1nccc(-c2cn(CCCO)c3ccccc23)n1
IC50 [9]: 161 nM
